For one series, the system named is 3-day-old mouse pups. Briefly: Effect of light exposure on metalloporphyrin-treated newborn mice (chemical toxicity and phototoxicity). Particulars: for chemical toxicity / phototoxicity, summary: 3.75 to 30.0 μmol/kg BW IP; for LD50 (50% lethal dose), exposed to light: fluorescent light (2 cool white, 1 blue tube) 3 hours. How it is done: FIG. 2 includes three panels ((A), (B), and (C)), showing the experimental setup for phototoxicity studies. 3-day-old pups (magnified in panel (A)) were given vehicle or Mp IP at doses ranging from 3.75 to 30 μmol/kg body weight (BW) and then exposed for 3 hours to fluorescent light consisting of 2 cool white and 1 blue tubes (as shown in panel (B)) emitting an irradiance of 35.0±1.0 μW/cm^2/nm as measured by a BiliBlanket II Meter (as depicted in panel (C)).
Effect of light exposure on metalloporphyrin-treated newborn mice. […] Pups were either kept in the dark (controls) or exposed to fluorescent light composed of two cool white tubes (F20T12cW) and one blue (TL20W/52) tube for 3 hours (FIG. 2).

The next series concerns heme oxygenase (HO). The series can be described thus: HO activity inhibition in ZnBG-treated 3-day-old pups (FIG. 3). The class given is in vivo, mouse.
The next series has as its system newborn rhesus monkeys. Briefly: Hemolytic jaundice model, newborn rhesus monkeys treated with heat-damaged erythrocytes. The format is in vivo, rhesus monkey. The source says:
However, ZnPP has been troublesome to maintain in solution and is not orally absorbed, requiring parenteral administration.

[1] abbreviates: after exposure to fluorescent light.

From US20150224202A1, “FORMULATIONS AND USES FOR MICROPARTICLE DELIVERY OF ZINC PROTOPORPHYRINS” (priority 2014, published 2015) come the findings set out here.

Where only a bound is given, the exact number is not on record here.

For the compound zinc bis glycol porphyrin [ZnBG], in the series with 3-day-old mouse pups (30 μmol/kg BW, blue light-emitting diode (LED) light), the “lethality under blue LED light” value is on record as “no lethality was observed”. Also, the “chemical toxicity, kept in the dark” value with 3-day-old mouse pups (30 μmol/kg, kept in the dark) is listed as “did not show any chemical toxicity”. Moreover, in the series on 3-day-old mouse pups, the “chemical toxicity / phototoxicity, summary” value is “has no chemical toxicity, but a phototoxicity that is dependent on the light source”. Further, the “doses at which gross histologic skin changes developed” value with 3-day-old mouse pups (6 days after light exposure) is more than 7.5 μmol/kg BW. Moreover, the “LD50 (50% lethal dose), exposed to light” value in the series with 3-day-old mouse pups (IP, 3-day-old mouse pups) came to 19.5 µmol/kg. For the same compound, in the series on 3-day-old mouse pups (setting [1]), the “aspartate aminotransaminase (AST) levels” value is on record as “increases”, the “body weight after exposure to light” value is “significant weight loss”, the “creatine kinase (CK-MB) levels” value is listed as “increases” and the liver antioxidant capacities result was “decreases”. Further, the “inhibited HO activity” value in the series with heme oxygenase (HO) (3.75 μmol ZnBG/kg BW) was “up to 75%”. In the series on heme oxygenase (HO) (FIG. 3), the “doses retaining maximal HO inhibitory potency without photosensitizing effects” value is recorded as less than 3.75 μmol/kg BW.
Turning to `C=CC1=C(C)c2cc3[n-]c(cc4nc(cc5[n-]c(cc1n2)c(C)c5C=C)C(C)=C4CCC(=O)O)c(CCC(=O)O)c3C.[Zn+2]` [ZnPP, Zinc protoporphyrin], in the series on newborn rhesus monkeys (40 μmol/kg BW SC), the “tissue targeting of HO inhibition” value was “targeted to the liver and spleen, without affecting the kidney or brain”. In addition, the “time to reduce carboxyhemoglobin and total bilirubin levels to baseline levels” value in the series on newborn rhesus monkeys (40 μmol/kg BW subcutaneously (SC)) is not above 24 h.
Take chromium mesoporphyrin [CrMP]: the “chemical toxicity / phototoxicity, summary” value with 3-day-old mouse pups is listed as “has a chemical toxicity, but no phototoxicity”. Besides, the “LD50 (50% lethal dose), exposed to light” value in the series with 3-day-old mouse pups (IP, 3-day-old mouse pups) turned out to be 23.0 µmol/kg. In addition, in the series with 3-day-old mouse pups (IP, 3-day-old mouse pups, kept in the dark), the “LD50 (50% lethal dose), kept in the dark” value is 21.5 µmol/kg.
